From PMC10824102, “Identification of small molecule inhibitors of G3BP-driven stress granule formation” (The Journal of Cell Biology, 2024)

How the values were obtained:
[1] = tested on: eIF3η, PABPC1, and FXR1 puncta in U2OS cells stably expressing G3BP1-GFP; test: Immunofluorescence of additional stress granule markers after post-addition; assay type: cell-based; details: 250 μM NaAsO2 for 30 min, then 50 μM compound for 5 min
Description: U2OS cells or U2OS cells stably expressing G3BP1-GFP were seeded in four-well Lab-Tek II Chambered Coverglass (1055360; Thermo Fisher Scientific). For preincubation experiments, cells were treated with 50 μM G3I compound for 20 min or 24 h, followed by 250 μM NaAsO2 and 50 μM G3I compound for 30 min. For posttreatment, cells were treated with 250 μM NaAsO2 for 30 min, followed by treatment with 250 μM NaAsO2 and 50 μM G3I compound for 5 min. Cells were then washed twice with PBS and fixed with 4% PFA in PBS for 10 min. Cells were then washed three times with PBS (5 min between each wash), permeabilized with 0.5% Triton X-100 in PBS for 10 min, and washed twice with PBS. Next, cells were blocked for 1 h with 3% BSA in PBS at room temperature, followed by incubation with primary antibodies diluted in 3% BSA overnight at 4°C. Cells were then washed three times with PBS (5 min between each wash) and incubated with secondary antibodies and Hoechst diluted in 3% BSA at room temperature for 1 h. Cells were then washed three times with PBS (5 min between each wash) and imaged. […]

[2] = tested on: stress granule formation in U2OS cells stably expressing G3BP1-GFP; test: Preincubation, heat shock-induced stress granule formation in U2OS; assay type: cell-based; details: 50 μM, 20 min pretreatment, 43°C heat shock, 15 min post heat shock
Description: For preincubation of compounds, U2OS or HeLa cells stably expressing G3BP1-GFP or CRISPR-modified cells expressing TDP-43-GFP/G3BP1-GFP were seeded into eight-well Lab-Tek chambered cover glass (Nunc). At least 20 min prior to the experiment, 1 ml FluoroBrite DMEM media (Gibco) supplemented with 10% FBS and 4 mM L-glutamine was combined with 0.1% DMSO or G3I compound (5, 10, or 50 μM). This solution was vortexed for 5 s, added to the cells at 250 μl per well, and left to incubate on the microscope for 20 min. Conditions were maintained at 37°C and 5% CO2 using a Bold Line Cage Incubator (Okolab) and an objective heater (Bioptechs). During this incubation time, 5 xy fields were stored per condition, with each field having ∼20–30 cells within it. After the 20-min incubation, 250 μl of 500 μM or 1 mM (2×) sodium arsenite (Sigma-Aldrich) diluted in the FluoroBrite media with an appropriate amount of G3I compound or DMSO was added to the sample. Imaging began immediately after, with images at each xy field being taken every 1 min. For heat shock experiments, U2OS G3BP1-GFP-expressing cells were seeded into a 35-mm glass bottom dish (MatTek). Prior to the experiment, 1.5 ml FluoroBrite DMEM media (Gibco) supplemented with 10% FBS and 4 mM L-glutamine was combined with 0.1% DMSO or 50 μM G3I compound. The sample was incubated on the environmentally controlled microscope for 20 min. […]

Row | SMILES | eIF3η, PABPC1, and FXR1 puncta [1] | reduction of stress granule formation compared with inactive enantiomer [2]
1 | COCCC(NC(=O)C(C)NC(=O)C(NC(=O)C(NC(=O)C(F)CC(C)(C)C)C(C)(C)O)C(C)c1ccccc1)C(=O)N(C)Cc1ccccc1 (stereo not shown) [G3Ia] | reduced eIF3η, PABPC1, and FXR1 puncta | ~79%
2 | CC(NC(=O)C(NC(=O)C(NC(=O)CCC(C)(C)C)C(C)(C)O)C(C)c1ccccc1)C(=O)N1CCCC1c1ccccc1 (stereo not shown) [G3Ib] | reduced eIF3η, PABPC1, and FXR1 puncta | ~82%
